According to patent US9107946B2, “Drug combinations comprising a DGAT inhibitor and a PPAR-agonist” (Janssen Pharmaceutica NV, priority 2008, dated 2015):
Like-named read-outs stand apart in the source and are kept apart here.

Legend:
[1] = Test A: food intake, body weight and serum biochemistry, DGAT inhibitor, fenofibrate or both in diet; type: in vivo, DIO C57BL/6 mice; conditions: 12 day trial, 45 kcal % fat diet; for cumulative food intake less than the control group: 0.04% D and/or 0.05% F in diet, only D+F significant (P<0.05)
Excerpt: Diet was provided in powder form.
At the end of test A, blood was collected under isoflurane anesthesia for serum biochemistry determinations.

[2] = target: T1, human DGAT1 (Homo sapiens, UniProt O75907); experiment: DGAT1 FlashPlate assay: inhibition of DGAT1 activity in membrane preparations; type: biochemical; conditions: human DGAT1 membranes from SF9 cells, [3H]-oleoylCoA, 120 min at 37° C.; read-out: pIC50 (-logIC50, 50% inhibition of DGAT1 activity) (converted)
T1 construct: FLAG (N); made in house; host or cells: SF9 insect cells (pFastBac / baculovirus); total cell membranes
T1 sequence (O75907 1-488): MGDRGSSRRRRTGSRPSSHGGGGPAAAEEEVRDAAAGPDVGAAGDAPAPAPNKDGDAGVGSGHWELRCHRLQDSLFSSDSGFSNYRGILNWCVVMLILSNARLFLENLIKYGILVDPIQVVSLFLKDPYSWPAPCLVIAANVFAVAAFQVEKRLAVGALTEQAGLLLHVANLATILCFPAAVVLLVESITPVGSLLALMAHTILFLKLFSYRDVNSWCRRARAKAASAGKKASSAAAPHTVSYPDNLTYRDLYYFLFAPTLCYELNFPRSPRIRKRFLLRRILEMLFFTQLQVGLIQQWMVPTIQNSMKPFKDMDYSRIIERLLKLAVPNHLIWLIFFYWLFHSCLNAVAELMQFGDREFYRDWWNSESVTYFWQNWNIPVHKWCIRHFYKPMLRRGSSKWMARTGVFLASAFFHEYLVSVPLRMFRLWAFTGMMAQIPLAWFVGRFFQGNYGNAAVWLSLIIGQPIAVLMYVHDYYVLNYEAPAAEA
Excerpt: The inhibiting activity of compounds of Class A, Class B, Class C and Class D on DGAT1 activity was screened in a single well procedure assay using DGAT1 comprising membrane preparations and DGAT1 substrate comprising micelles and determining formed radio-active triacylglycerol coming in close proximity of a flashplate surface by radioluminescence.
Said assay is described in full detail in WO2006/067071, the content of which is incorporated herein by reference.
By DGAT1 activity is meant the transfer of coenzyme A activated fatty acids to the 3-position of 1,2-diacylglycerols, thus forming a triglyceride molecule, by enzyme DGAT1.
human DGAT1 (NM012079.2) was cloned into the pFastBac vector, containing translation start, a FLAG-tag at the N-terminus as described in literature and a viral Kozak sequence (AAX) preceding the ATG to improve expression in insect cells. Expression was done as described in literature (Cases, S., Smith, S. J., Zheng, Y., Myers H. M., Lear, S. R., Sande, E., Novak, S., Collins, C., Welch, C. B., Lusis, A. J., Erickson, S. K. and Farese, R. V. (1998) Proc. Natl. Acad. Sci. USA 95, 13018-13023.) using SF9 cells.
72h transfected SF9 cells were collected by centrifugation (13000 rpm-15 min-4° C.) and lysed in 2×500 ml lysisbuffer (0.1M Sucrose, 50 mM KCl, 40 mM KH2PO4, 30 mM EDTA pH 7.2. Cells were homogenized by cell disruptor. After centrifugation 1380 rpm-15 min-4° C. (SN discarded), pellet was resuspended in 500 ml lysisbuffer and total cell membranes collected by ultracentrifugation at 34000 rpm(100 000 g) for 60 min (4° C.). The collected membranes were resuspended in lysis buffer, divided in aliquots and stored with 10% glycerol at −80° C. until use.
• a) 1,2-dioleoyl-sn-glycerol, 10 mg/ml (1,2-diacylglycerol (DAG)) Dissolve in acetonitrile; evaporate the acetonitrile solution under nitrogen and reconstitute in chloroform at a final concentration of 10 mg/ml. • b) L-α-phosphatidylcholine, 1 mg/ml (phosphatidylcholine (PC)) • Dissolve in chloroform at a final concentration of 1 mg/ml and store at 4° C. • c) L-α-phosphatidyl-L-serine, 1 mg/ml (phophatidylserine (PS)) • Dissolve in chloroform at a final concentration of 1 mg/ml and store at 4° C. Method
Add 1 ml dioleoyl-sn-glycerol (10 mg/ml) to 10 ml of L-α-phosphatidylcholine (1 mg/ml) and 10 ml of L-α-phosphatidyl-L-serine (1 mg/ml) in a thick glass recipient. Evaporate under nitrogen and put on ice for 15 min Reconstitute in 10 ml Tris/HCl (10 mM, pH 7.4) by sonication on ice. The sonification process includes sonification cycles of 10 seconds in the sonification bath followed by 10 seconds cool down on ice and repeating this sonification cycle till a homogeneous solution is obtained (takes about 15 min). The thus obtained micelles are stored at −20° C. till later use and contain DAG at a final concentration of 1.61 mM.
• a) Assaybuffer • 50 mM Tris-HCl (pH 7.4), 150 mM MgCl2, 1 mM EDTA, 0.2% BSA. • b) N-ethylmaleimide, 5M • Dissolve 5 g into a final volume of 8 ml DMSO 100% and store at −20° C. in aliquots till later use. • c) Substrate mix (for 1 384 well plate=3840 μl) • 612 μl micelles stock (51 μM final) • 16.6 μl oleoylCoA 9.7 mM • 23 μl [^3H]-oleoylCoA (49 Ci/mmol, 500 μCi/ml) • 3188.4 μl Tris pH 7.4, 10 mM • d) Enzyme mix (for 1 384 well plate=3520 μl) (5 μg/ml) • Add 11.73 μl of DGAT membrane stock (1500 μg/ml stock) to 3508 μl assay buffer. • e) Stop mix (for 1 384 well plate=7.68 ml) (250 mM) • Add 384 μl of N-ethylmaleimide (5M) to 3.456 ml DMSO 100%, and further dilute 3.84 ml of said solution with 3.84 ml DMSO 10%. Method
DGAT activity in membrane preparations was assayed in 50 mM Tris-HCl (pH 7.4), 150 mM MgCl2, 1 mM EDTA and 0.2% BSA, containing 50 μM DAG, 32 μg/ml PC/PS and 8.4 μM [^3H]-oleoylCoA (at a specific activity of 30 nCi/well) in a final volume of 50 μl in 384-well format using the red shifted Basic Image FlashPlate™ (Perkin Elmer Cat.No. SMP400). […]

[3] = 0.04% compound 358 of Class D and/or 0.05% fenofibrate in diet

SMILES | cumulative food intake less than the control group [1] | daily food intake compared to control mice ([1]; 0.04% compound 223 of Class D (D) and/or 0.05% fenofibrate (F) in diet) | melting point | IC50 [2] | 21 days body weight change compared to controls (2x2 factorial) ([3]; main effects P<0.05, interaction P>0.05) | daily food intake compared to control mice ([3]; 45 kcal % fat diet, n=8/group)
COc1ccc(CC(=O)Nc2ccc(N3CCN(C(=O)Nc4c(Cl)cc(CN5CCCC5)cc4Cl)CC3)cc2)cc1 [compound 223 of Class D] | 3.2% | not significantly less than control mice | – | – | – | –
CC(C)OC(=O)C(C)(C)Oc1ccc(C(=O)c2ccc(Cl)cc2)cc1 [fenofibrate, reference compound] | 7.5% | – | – | – | – | –
COc1cc(CNC(=O)c2ccc(N3CCN(C(=O)Cc4c(Cl)cc(CN5CCCC5)cc4Cl)CC3)cc2)cc(OC)c1 [358-Class D, 4-[4-[[2,6-dichloro-4-(1-pyrrolidinylmethyl)phenyl]acetyl]-1-piperazinyl]-N-[(3,5-dimethoxyphenyl)methyl]-benzamide] | – | – | 199 to 200 °C | 0.0257 µM | gained less weight than controls | not significantly less than control mice
CCN1CCN(Cc2cc(Cl)c(CC(=O)N3CCN(c4ccc(C(=O)Nc5cccc(N6CCCC6)c5)cc4)CC3)c(Cl)c2)CC1 [148-Class C, 4-[4-[[2,6-dichloro-4-[(4-ethyl-1-piperazinyl)methyl]phenyl]acetyl]-1-piperazinyl]-N-[3-(1-pyrrolidinyl)phenyl]-benzamide] | – | – | 180 to 182 °C | 0.00912 µM | – | –
CCN1CCN(Cc2cc(Cl)c(CC(=O)N3CCN(c4ccc(C(=O)NCc5cc(OC)cc(OC)c5)cc4)CC3)c(Cl)c2)CC1 [360-Class D, 4-[4-[[2,6-dichloro-4-[(4-ethyl-1-piperazinyl)methyl]phenyl]acetyl]-1-piperazinyl]-N-[(3,5-dimethoxyphenyl)methyl]-benzamide] | – | – | 159 to 160 °C | 0.00759 µM | – | –
CCN1CCN(Cc2cc(Cl)c(CC(=O)N3CCN(c4ccc(C(=O)NCc5cccc(N6CCCC6)c5)cc4)CC3)c(Cl)c2)CC1 [359-Class D, 4-[4-[[2,6-dichloro-4-[(4-ethyl-1-piperazinyl)methyl]phenyl]acetyl]-1-piperazinyl]-N-[[3-(1-pyrrolidinyl)phenyl]methyl]-benzamide] | – | – | 240 to 241 °C | 0.0282 µM | – | –
O=C(Nc1cccc(N2CCCC2)c1)c1ccc(N2CCN(C(=O)Cc3ccc(CN4CCCC4)cc3Cl)CC2)cc1 [151-Class C, 4-[4-[[2-chloro-4-(1-pyrrolidinylmethyl)phenyl]acetyl]-1-piperazinyl]-N-[3-(1-pyrrolidinyl)phenyl]-benzamide] | – | – | 224.1 to 225.4 °C | 0.316 µM | – | –
